EP3034610A1, “NOVEL TERPENOID COMPOUND AND METHOD FOR PRODUCING SAME” (The Kitasato Institute, priority 2013, dated 2015)

Tests used:
Format in all cases: cell-based
Conditions in all cases: 72 h treatment, OD 540 nm, tested 5-100 µg/mL
Mycobacterium smegmatis = experiment: Cytotoxicity, MTT assay (viability), Mycobacterium smegmatis
[1] = test system: Jurkat (T-cell lymphoblastic leukemia); experiment: Cytotoxicity, MTT assay (viability), Jurkat
SKOV (ovarian cancer) = experiment: Cytotoxicity, MTT assay (viability), SKOV

Compound	IC50 (Mycobacterium smegmatis)	IC50 [1]	IC50 (SKOV (ovarian cancer))
C=C(CCC=C(C)C)[C@@H]1CC[C@@]2(C)CCCC(C)=C2C1 [clavulatriene A]	not active	IC50 = 5.63 µg/ml.	not active
tetramethylhexadecahydropyrenol	IC50 = 49.78 µg/ml	IC50 = 29. 35 µ g/ml µg/ml	IC50 = 35.38 µ g/ml
trimethyl-methylenehexadecahydropyrene	IC50 = 50.08 µg/ml	not active	not active
